Assay results published in PubChem BioAssay (NCI).
Where “and” joins values, the source holds several entries; their conditions need not be identical. Identical values can stand only once.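 Cells were grown in 96-well plates and exposed to each compound for 48 hours at five concentrations; endpoints were interpolated linearly between bracketing concentrations, or set to the highest concentration if not reached. Here, GI50 denotes the concentration required for 50% inhibition of growth. At the TGI there is no net growth.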

Columns and labels:
Assay in all cases: NCI tumour cell line growth inhibition, 48 h
SNB-75 CNS = tested on: SNB-75 CNS
SW-620 colon = tested on: SW-620 colon
NCI-H522 lung = tested on: NCI-H522 lung
KM12 colon = tested on: KM12 colon
DLD-1 colon = tested on: DLD-1 colon
MOLT-4 leukemia = tested on: MOLT-4 leukemia
DMS 114 small cell lung = tested on: DMS 114 small cell lung
EKVX NSCLC = tested on: EKVX NSCLC
SK-MEL-5 melanoma = tested on: SK-MEL-5 melanoma
HL-60(TB) leukemia = tested on: HL-60(TB) leukemia

SMILES	TGI (SNB-75 CNS)	TGI (SW-620 colon)	TGI (NCI-H522 lung) [µM]	TGI (KM12 colon)	TGI (DLD-1 colon) [µM]	TGI (MOLT-4 leukemia)	TGI (DMS 114 small cell lung) [µM]	TGI (EKVX NSCLC)	TGI (SK-MEL-5 melanoma) [µM]	TGI (HL-60(TB) leukemia)	GI50 (SNB-75 CNS) [nM]	GI50 (SW-620 colon) [nM]	GI50 (NCI-H522 lung) [nM]	GI50 (KM12 colon) [µM]	GI50 (DLD-1 colon) [nM]	GI50 (MOLT-4 leukemia) [µM]	GI50 (DMS 114 small cell lung) [nM]	GI50 (EKVX NSCLC) [nM]	GI50 (SK-MEL-5 melanoma) [nM]	GI50 (HL-60(TB) leukemia) [µM]
[O-]c1c2c(nn1-c1ccccc1)c1ccccc1c[n+]2Cc1ccccc1	> 100 µM	> 100 µM	> 100	> 100 µM	> 100	> 100 µM	> 100	> 100 µM	> 100	> 100 µM	–	–	–	–	–	–	–	–	–	–
COC(=O)C1=C(O)c2cc(OC)c(OC)c(OC)c2[C@H](c2cc(OC)c(OC)c(OC)c2)C1C(=O)OC (some centres not stated)	> 100 µM	> 100 µM	43.5	> 100 µM	> 100	68.3 µM	87.7	> 100 µM	> 100	61.6 µM	–	–	–	–	–	–	–	–	–	–
COC(=O)C1=C2CCC(=O)[C@@]2(C)C(OC(C)=O)C=CC1 (some centres not stated)	> 100 µM	> 100 µM	–	> 100 µM	> 100	> 100 µM	> 100	> 100 µM	> 100	> 100 µM	–	–	–	–	–	–	–	–	–	–
CCC[CH2][Sn]1([CH2]CCC)[O]C(=O)c2cc(I)cc(I)c2[O]1	2.25 µM	1.57 µM	0.323	2.99 µM	2.42	1.76 µM	1.19	3.4 µM	2.88	2.22 µM	1040	367	143	1.61	1150	0.344	303	1350	1540	0.4
CCOC(=O)/C(O)=C(/c1n[nH]c(=O)c2ccccc12)[N+](=O)[O-]	> 100 µM	> 100 µM	> 100	> 100 µM	> 100	> 100 µM	> 100	> 100 µM	> 100	> 100 µM	–	–	–	–	–	–	–	–	–	–
O=c1cccccc1NCCOCCNc1cccccc1=O	> 100 µM	> 100 µM	> 100	> 100 µM	> 100	> 100 µM	> 100	> 100 µM	> 100	> 100 µM	–	–	–	–	–	–	–	–	–	–
CCC(C)(C)C(=O)O[C@H]1C[C@@H](C)C=C2C=C[C@H](C)[C@H](CC[C@@H]3C[C@@H](O)CC(=O)O3)[C@H]21	5.37 µM and > 30 µM	16.6 µM and > 30 µM	5.26	24.1 µM and > 30 µM	> 30	31.7 µM and > 30 µM	> 30	19.3 µM and > 30 µM	7.87	20.8 µM and > 30 µM	–	3580	826	11.2	–	14.6	–	2780	2230	6.02
CCCN(CCCCC(NC(C)=O)C(=O)NCc1ccccc1)C(=O)N(C)N=O (configuration not stated)	> 100 µM	> 100 µM	> 100	> 100 µM	> 100	> 100 µM	> 100	> 100 µM	> 100	–	–	–	–	–	–	–	–	–	–	–
COc1cc(C2=NN(C)C(c3ccc([N+](=O)[O-])o3)C2)cc(OC)c1OC (configuration not stated)	> 100 µM	30.6 µM	> 100	> 100 µM	> 100	> 100 µM	> 100	> 100 µM	> 100	> 100 µM	–	–	–	–	–	–	–	–	–	–
O=S(=O)(/C=C/c1ccc(Cl)cc1Cl)Cc1ccccc1CS(=O)(=O)/C=C/c1ccc(Cl)cc1Cl	> 100 µM	> 100 µM	> 100	> 100 µM	> 100	> 100 µM	> 100	> 100 µM	–	–	–	–	–	–	–	–	–	–	–	–
COc1ccc(C(=O)OCC2OC(n3cnc4c(=S)nc[nH]c43)C(OC(=O)c3ccc(OC)cc3)C2OC(=O)c2ccc(OC)cc2)cc1 (configuration not stated)	77 µM	> 100 µM	54.5	> 100 µM	> 100	> 100 µM	> 100	–	> 100	> 100 µM	–	–	–	–	–	–	–	–	–	–
